Measurements taken from patent publication US20220241422A1, “DRUG DELIVERY COMPOSITION AND PHARMACEUTICAL COMPOSITION” (Nihon University, priority 2019, published 2022).

Columns and labels:
[1] = system: ALS model mice (G93A SOD1 transgenic mouse); assay: Oral administration test for NAC in ALS model mice (Rota-Rod motor function, survival time); format: in vivo; details: oral administration from 15 weeks of age, vs water-administered group
Description: NAC is considered to be effective for treating ALS as a result of its effect of removing active oxygen. Thus, NAC was used as a test drug for ALS treatment.
As a test animal, G93A SOD1 transgenic mouse (G93A), which is one of the ALS model animals, was used. […] The research group of the present inventors has already reported the characteristics of the change (progression) in the motor dysfunction of this G93A (Miyagisi H et al., J Pharmacol Sci., 118, 225-236 (2012)).
NAC was orally administered to G93A from 15 weeks of age (105 days of age) after the onset of ALS, and the motor function and the survival time were examined. Water was orally administered as a negative control.
The motor function was evaluated using Rota-Rod (Muromachi Kikai Co., Ltd.). in order to acclimatize mice to Rota-Rod, mice were trained from 3 weeks (12 weeks of age) before the day of measurement initiation. The rotation speed of Rota-Rod was set to 24 times/minute. The measurement was performed twice a week, and the time (seconds) taken until the mouse fell from Rota-Rod was measured. The cut-off value was set to 300 seconds, while in the case of falling, the average value of three times was used as the score for that day, and measurements were taken up to 133 days after birth.

ALS model mice (G93A) = assay: Nasal administration test for NAC/PEG-PCL-Tat in ALS model mice (Rota-Rod motor function); format: in vivo, mouse; details: nasal administration 105 to 120 days of age, 5 days a week; compared with untreated
Description: A drug solution was prepared by dissolving NAC in HEPES buffer solution (pH 7.4) at a concentration of 50 mg/mL.
The drug solution was administered to G93A for a period from 105 days of age (15 weeks of age) after birth to 120 days of age, at a frequency of 5 days a week. […] Under inhalation anesthesia using a mask in which the vicinity of the nostrils could be opened or closed, 2 μL each of the drug solution was alternately administered to the right and left nasal cavities every 30 seconds using a micropipette (see FIG. 3). Only male mice were used for the test, and in principle, administration was performed in the morning (10:00 to 12:00).
The motor function was evaluated using Rota-Rod (Muromachi Kikai Co., Ltd.). In order to acclimatize mice to Rota-Rod, mice were trained from 3 weeks (12 weeks of age) before the day of measurement initiation. The rotation speed of Rota-Rod was set to 24 times/minute. The measurement was performed twice a week, and the time (seconds) taken until the mouse fell from Rota-Rod was measured. The cut-off value was set to 300 seconds, while in the case of falling, the average value of three times was used as the score for that day, and measurements were taken up to 122 days after birth.

**Q.** Which results are given for `CC(=O)N[C@@H](CS)C(=O)O` [NAC, N-Acetyl-Cysteine]?
**A.** motor function (Rota-Rod) [1]: no difference; survival time [1]: no difference; suppression of hypanakinesia (Rota-Rod, FIG. 4A) (ALS model mice (G93A)): hypanakinesia was suppressed
